In ChEMBL document CHEMBL5321290, “Discovery of the Diphenyl 6-Oxo-1,6-dihydropyridazine-3-carboxylate/carboxamide Analogue J27 for the Treatment of Acute Lung Injury and Sepsis by Targeting JNK2 and Inhibiting the JNK2-NF-κB/MAPK Pathway” (J Med Chem, 2023):
Calls of active or inactive are those of the source. No cut-off for these calls is given here.

Key:
[1] = Subacute toxicity in ICR mouse assessed as pathological change in lung at 500 to 100 mg/kg, IG measured for 10 days by hematoxylin and eosin dye based light microscopy; type: organism-based; conditions: in vivo, po, 240 h, dose 500-100 mg/kg, time 10 day
[2] = target: T1, NF-kappa-B inhibitor alpha (Mus musculus) (UniProt Q9Z1E3); experiment: […] in mouse J774A.1 cells pretreated at 10 uM for 2 hrs followed by induced with LPS for 30 mins by Western blot analysis; type: cell-based; conditions: J774.1
T1 sequence (whole entry): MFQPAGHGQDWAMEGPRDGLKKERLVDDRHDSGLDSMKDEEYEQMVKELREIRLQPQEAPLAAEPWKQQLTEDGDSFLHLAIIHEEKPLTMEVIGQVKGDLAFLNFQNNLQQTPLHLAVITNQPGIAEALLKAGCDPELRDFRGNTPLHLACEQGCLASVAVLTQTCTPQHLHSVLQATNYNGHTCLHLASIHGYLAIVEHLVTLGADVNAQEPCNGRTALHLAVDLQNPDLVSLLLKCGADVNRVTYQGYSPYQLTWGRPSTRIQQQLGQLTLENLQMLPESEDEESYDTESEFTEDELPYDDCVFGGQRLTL

[3] = target: Mitogen-activated protein kinase 9 (Mus musculus) (UniProt Q9WTU6); experiment: Binding affinity to JNK2 in protein lysate of LPS-stimulated mouse J774A.1 cells assessed as protein degradation in presence of pronase at 10 to 40 uM measured after overnight incubation by immunoblotting based drug affinity responsive target stability (DARTS) assay; type: subcellular; conditions: J774.1, dose 10-40 µM
Chain of Mitogen-activated protein kinase 9 (Mus musculus) (Q9WTU6 whole entry): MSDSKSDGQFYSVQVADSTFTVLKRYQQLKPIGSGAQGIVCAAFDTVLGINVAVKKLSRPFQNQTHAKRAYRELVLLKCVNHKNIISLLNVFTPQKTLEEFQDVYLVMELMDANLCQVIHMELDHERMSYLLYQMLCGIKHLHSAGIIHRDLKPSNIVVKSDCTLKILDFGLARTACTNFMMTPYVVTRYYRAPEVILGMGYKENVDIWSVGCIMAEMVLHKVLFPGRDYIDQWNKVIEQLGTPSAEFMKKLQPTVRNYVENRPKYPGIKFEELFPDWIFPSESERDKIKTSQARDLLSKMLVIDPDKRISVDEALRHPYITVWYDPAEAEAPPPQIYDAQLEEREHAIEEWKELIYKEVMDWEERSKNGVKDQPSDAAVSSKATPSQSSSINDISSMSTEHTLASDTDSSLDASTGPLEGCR

[4] = Subacute toxicity in ICR mouse assessed as pathological change in spleen at 500 to 100 mg/kg, IG measured for 10 days by hematoxylin and eosin dye based light microscopy; type: organism-based; conditions: in vivo, po, 240 h, dose 500-100 mg/kg, time 10 day
J774.A1 [5] = experiment: Antiinflammatory activity against mouse J774A.1 cells assessed as inhibition of LPS-stimulated IL6 mRNA expression pretreated for 2 hrs followed by stimulated with LPS by RT-qPCR analysis; type: functional, cell-based; conditions: dose 2.5-10 µM
Mus musculus [6] = experiment: Antiinflammatory activity against LPS-induced acute lung injury C57 mouse model assessed as reduction in LPS-induced p-JNK level in lung tissue at 40 mg/kg, po thrice at 12 hrs interval followed 30 mins treated with LPS by Western blot analysis; type: functional, organism-based; conditions: time 36.5 hrs
Mus musculus [7] = experiment: Antiinflammatory activity against LPS-induced acute lung injury C57 mouse model assessed as improvement in alveolar structure at 20 mg/kg, po thrice at 12 hrs interval by hematoxylin and eosin dye based light microscopy; type: functional, organism-based; conditions: time 36.0 hrs
[8] = target: Mitogen-activated protein kinase 9 (Homo sapiens, UniProt P45984); experiment: Binding affinity to JNK2 (unknown origin) assessed as dissociation constant by SPR analysis
Chain of Mitogen-activated protein kinase 9 (P45984 whole entry): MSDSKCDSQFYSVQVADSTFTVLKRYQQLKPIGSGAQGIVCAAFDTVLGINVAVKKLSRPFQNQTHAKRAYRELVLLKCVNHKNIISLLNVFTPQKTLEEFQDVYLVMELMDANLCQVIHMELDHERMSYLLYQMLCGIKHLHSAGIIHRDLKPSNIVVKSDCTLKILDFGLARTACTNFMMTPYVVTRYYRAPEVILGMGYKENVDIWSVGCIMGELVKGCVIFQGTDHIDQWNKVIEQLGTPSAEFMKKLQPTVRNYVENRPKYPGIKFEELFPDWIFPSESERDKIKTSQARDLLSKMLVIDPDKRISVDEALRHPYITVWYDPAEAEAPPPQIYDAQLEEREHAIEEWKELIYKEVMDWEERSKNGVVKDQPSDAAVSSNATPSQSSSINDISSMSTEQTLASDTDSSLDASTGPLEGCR

[9] = target: T2, Mitogen-activated protein kinase kinase kinase 7 (Homo sapiens) (UniProt O43318); experiment: Inhibition of TAK1 (unknown origin) assessed as inhibition rate at 10 uM by SPR analysis relative to control
T2 sequence (whole entry): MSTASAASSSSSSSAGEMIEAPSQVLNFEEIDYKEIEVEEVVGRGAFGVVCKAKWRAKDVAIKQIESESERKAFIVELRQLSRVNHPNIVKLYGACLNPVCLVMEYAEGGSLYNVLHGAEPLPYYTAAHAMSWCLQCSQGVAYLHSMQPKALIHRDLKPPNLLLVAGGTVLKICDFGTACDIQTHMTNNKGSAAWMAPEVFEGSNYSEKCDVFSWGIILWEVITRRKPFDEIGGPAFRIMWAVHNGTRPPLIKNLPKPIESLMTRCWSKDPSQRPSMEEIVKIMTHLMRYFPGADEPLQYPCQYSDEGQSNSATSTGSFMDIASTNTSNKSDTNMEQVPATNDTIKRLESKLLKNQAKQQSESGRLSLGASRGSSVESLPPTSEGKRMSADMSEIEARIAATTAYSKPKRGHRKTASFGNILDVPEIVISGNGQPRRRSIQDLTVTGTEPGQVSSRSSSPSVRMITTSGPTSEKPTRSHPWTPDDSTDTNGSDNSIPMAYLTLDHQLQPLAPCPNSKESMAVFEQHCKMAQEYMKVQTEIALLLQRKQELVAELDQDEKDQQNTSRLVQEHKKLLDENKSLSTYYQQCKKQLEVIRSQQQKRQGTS

J774.A1 [10] = experiment: Antiinflammatory activity against mouse J774A.1 cells assessed as inhibition of LPS-stimulated TNFalpha release measured after 30 mins by ELISA; type: functional, cell-based; conditions: J774.A1, 0.5 h
J774.A1 [11] = experiment: Antiinflammatory activity against mouse J774A.1 cells assessed as inhibition of LPS-stimulated TNFalpha mRNA expression pretreated for 2 hrs followed by stimulated with LPS by RT-qPCR analysis; type: functional, cell-based; conditions: dose 2.5-10 µM
[12] = target: Mitogen-activated protein kinase 10 (Mus musculus) (UniProt Q61831); experiment: Binding affinity to JNK3 in protein lysate of LPS-stimulated mouse J774A.1 cells assessed as protein degradation in presence of pronase at 10 to 40 uM measured after overnight incubation by immunoblotting based drug affinity responsive target stability (DARTS) assay; type: subcellular; conditions: J774.1, dose 10-40 µM
Chain of Mitogen-activated protein kinase 10 (Mus musculus) (Q61831 whole entry): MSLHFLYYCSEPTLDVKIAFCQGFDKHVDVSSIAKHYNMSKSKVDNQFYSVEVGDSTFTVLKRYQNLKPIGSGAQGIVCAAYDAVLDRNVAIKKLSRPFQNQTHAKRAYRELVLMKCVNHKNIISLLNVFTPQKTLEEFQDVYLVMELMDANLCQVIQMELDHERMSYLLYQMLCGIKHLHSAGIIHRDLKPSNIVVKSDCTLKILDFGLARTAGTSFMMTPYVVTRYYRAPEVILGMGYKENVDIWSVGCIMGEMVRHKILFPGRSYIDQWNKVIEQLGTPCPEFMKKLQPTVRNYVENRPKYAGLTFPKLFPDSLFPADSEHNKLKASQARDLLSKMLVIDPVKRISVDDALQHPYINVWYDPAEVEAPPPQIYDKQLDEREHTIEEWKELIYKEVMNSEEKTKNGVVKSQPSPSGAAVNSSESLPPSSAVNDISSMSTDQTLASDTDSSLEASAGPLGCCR

Mus musculus [13] = experiment: Antiinflammatory activity against LPS-induced acute lung injury C57 mouse model assessed as decrease in LPS-induced neutrophile count in broncho alveolar lavage fluid at 20 mg/kg, po thrice at 12 hrs interval; type: functional, organism-based; conditions: Bronchoalveolar lavage
[14] = Subacute toxicity in ICR mouse assessed as pathological change in kidney at 500 to 100 mg/kg, IG measured for 10 days by hematoxylin and eosin dye based light microscopy; type: organism-based; conditions: in vivo, po, 240 h, dose 500-100 mg/kg, time 10 day
THP-1 = experiment: Antiinflammatory activity against human THP-1 cells assessed as inhibition of LPS-stimulated IL6 mRNA expression pretreated for 2 hrs followed by stimulated with LPS by RT-qPCR analysis; type: functional, cell-based; conditions: dose 2.5-10 µM
[15] = Half life in Sprague-Dawley rat at 10 mg/kg, iv measured upto 24 hrs by UPLC-MS/MS analysis; type: ADME, organism-based; conditions: in vivo
[16] = Subacute toxicity in ICR mouse assessed as mortality at 500 to 100 mg/kg, IG measured for 10 days; type: organism-based; conditions: in vivo, po, 240 h, dose 500-100 mg/kg, time 10 day
J774.A1 [17] = experiment: Antiinflammatory activity against mouse J774A.1 cells assessed as inhibition of LPS-stimulated TNFalpha release measured at 10 uM after 30 mins by ELISA relative to control; type: functional; conditions: J774.A1, 0.5 h
Mus musculus [18] = experiment: Antiinflammatory activity against LPS-induced acute lung injury C57 mouse model assessed as decrease in LPS-induced lung wet to dry weight ratio at 20 mg/kg, po thrice at 12 hrs interval; type: functional, organism-based
[19] = AUC (0 to t) in Sprague-Dawley rat at 10 mg/kg, po measured upto 24 hrs by UPLC-MS/MS analysis; type: ADME, organism-based; parameters: dose 10 mg/kg, time < 24 hrs, route po; conditions: in vivo
Mus musculus [20] = experiment: Antiinflammatory activity against LPS-induced acute lung injury C57 mouse model assessed as reduction in LPS-induced p-p65 level in lung tissue at 40 mg/kg, po thrice at 12 hrs interval followed 30 mins treated with LPS by Western blot analysis; type: functional, organism-based; conditions: time 36.5 hrs
Mus musculus [21] = experiment: Antiinflammatory activity against LPS-induced acute lung injury C57 mouse model assessed as decrease in LPS-induced protein concentration in broncho alveolar lavage fluid at 20 mg/kg, po thrice at 12 hrs interval; type: functional, organism-based; conditions: Bronchoalveolar lavage

COc1cc2nccc(Oc3ccc(NC(=O)c4nn(-c5ccc(C)cc5)c(=O)cc4C)cc3)c2cc1OC
Activity [1]: Non-Toxic | Activity [2]: Active | Activity [3]: inactive | Activity [4]: Non-Toxic | Activity (J774.A1 [5]): Dose-Dependent Effect | Activity (Mus musculus [6]): Active | Activity (Mus musculus [7]): inactive | Kd [8]: 79.2 µM | inhibition [9]: 8.85% | IC50 (J774.A1 [10]): 5.3 µM | Activity (J774.A1 [11]): Dose-Dependent Effect | Activity [12]: inactive | Activity (Mus musculus [13]): inactive | Activity [14]: Non-Toxic | Activity (THP-1): Dose-Dependent Effect | half-life [15]: 1.15 h | Activity [16]: Non-Toxic | inhibition at 10 µM (J774.A1 [17]): 56.8% | Activity (Mus musculus [18]): inactive | AUCt [19]: 7792.708 ng·h/mL | Activity (Mus musculus [20]): Active | Activity (Mus musculus [21]): inactive
